Laboratory results from patent publication US20180085373A1, “THERAPEUTIC AND/OR PROPHYLACTIC AGENT FOR LEWY BODY DISEASE” (KYOWA HAKKO KIRIN CO., LTD., priority 2015, published 2018).

Legend:
Slc:ICR mice [1] = experiment: Spontaneous alternation task test (Y-maze), evaluation of cognitive function in NAC61-95 α-synucleinopathy model; assay type: in vivo; settings: NAC61-95-treated mice
Description: (§1) By reference to articles (Science, 338, p. 949 (2012); Behavioral Brain Research, 208, p. 274 (2010)), an animal model capable of confirming a therapeutic and/or prophylactic effect on α-synucleinopathy (for example, Lewy body disease, the Lewy body disease includes cognitive impairment in Parkinson's disease, diffuse Lewy body disease, dementia with Lewy bodies, movement disorder associated with Lewy body disease and the like) was prepared as follows.
(§2) The cognitive function was evaluated using a spontaneous alternation task. The spontaneous alternation task is known as an evaluation system of cognitive function utilizing properties of an animal to willingly explore a novel environment (Neuroscience and Biobehavioral Reviews 28, p. 497 (2004)). That is, if the animal remembers the arm into which it entered previously in an exploration in a Y-maze apparatus, the behavior of spontaneous entry into a different arm was expressed by an alternation behavior rate, and used as an index of cognitive function. The motor function was evaluated by analyzing gait function under natural walk conditions using a gait function/automatic gait analysis system.
(§3) NAC61-95 (custom, Sigma) was dissolved in PBS to prepare 4 μg/μL NAC61-95 solution.
Under pentobarbital (Somnopentyl, Kyoritsuseiyaku) (50 mg/kg, i.p.) anesthesia, 5 μL of NAC61-95 solution was injected using a Hamilton syringe (10 μL) equipped with a double needle (27G, needle length 3 mm) into the right lateral cerebral ventricle of Slc:ICR mice (male, Japan SLC) over about 1 minute, and stood for 1 minute to induce cognitive impairment and/or movement disorder. […]
Mice were brought into the experiment room from the previous day of test for habituation. […] Entry of all four limbs of a mouse into one arm was defined as entry into the arm, and the order of entry of the mouse into the arm was recorded. A behavior of successive entry into all three different arms was defined as spontaneous alternation behavior, and the percentage of alternation behavior was calculated by the following calculation formula. […]

Slc:ICR mice [2] = experiment: Gait test (CatWalk XT), evaluation of motor function in NAC61-95 α-synucleinopathy model; assay type: in vivo; settings: NAC61-95-treated mice
Description: as §1, §2, §3
Under pentobarbital (Somnopentyl, Kyoritsuseiyaku) (50 mg/kg, i.p.) anesthesia, 5 μL of NAC61-95 solution was injected using a Hamilton syringe (10 μL) equipped with a double needle (27G, needle length 3 mm) into the right lateral cerebral ventricle of Slc:ICR mice (male, Japan SLC) over about 1 minute, and stood for 1 minute to induce cognitive impairment and/or movement disorder.
As for a sham treatment group, under pentobarbital anesthesia, 5 μL of PBS was injected using a Hamilton syringe equipped with a double needle into the right lateral cerebral ventricle of Slc:ICR mice over about 1 minute, and stood for 1 minute.
A gait function/automatic gait analysis system (CatWalk XT, ver.9.1, Noldus) was used. The system consisted of a walkway with pressure-sensitive luminescent glass and a light source, a luminescent ceiling, a highly sensitive high-speed camera and an analysis software, and the gait was analyzed by digitizing the brightness of the light emitted by the pressure-sensitive luminescent glass in response to the pressure. The gait data was automatically recorded and analyzed by the analysis software only when a mouse moved straight forward without stopping in the predetermined area on the walkway.
The mice were brought into the experiment room with light off and habituated for not less than 1 hour. A mouse was placed in the apparatus, and allowed to walk freely until 6 running data were obtained for each individual. The first three running data amenable to analyze were taken up, and their mean was calculated.
At 60 minutes before the test, istradefylline (suspended in 0.5 w/v % aqueous MC solution, and prepared to 0.5 mL per 100 g body weight of a mouse on the administration day) was orally administered at a dose of 1.0 mg/kg, or a vehicle (0.5 w/v % aqueous MC solution) free of the test compound was orally administered at 0.5 mL per 100 g body weight of a mouse on the administration day.

[3] = 1.0 mg/kg orally 60 minutes before the test, mean±standard error

CCn1c(=O)c2c(nc(/C=C/c3ccc(OC)c(OC)c3)n2C)n(CC)c1=O [istradefylline]
cognitive impairment by NAC61-95 treatment (Slc:ICR mice [1]; 1.0 mg/kg orally): improved
alternation behavior (%) (Slc:ICR mice [1]; [3]): 66.4 ± 1.4%
alternation behavior as compared to the vehicle administration group (Slc:ICR mice [1]; 1.0 mg/kg orally, p<0.05, Aspin-Welch test): significantly high
gait pattern (mean) AA (Slc:ICR mice [2]; AA: right forepaw→right hindpaw→left forepaw→left hindpaw, 1.0 mg/kg orally, mean±standard error): 4.3 ± 2.8
gait pattern (mean) AB (Slc:ICR mice [2]; AB: right forepaw→left hindpaw→left forepaw→right hindpaw, 1.0 mg/kg orally, mean±standard error): 76.7 ± 7.1
gait pattern (mean) CA (Slc:ICR mice [2]; CA: right forepaw→left forepaw→right hindpaw→left hindpaw, 1.0 mg/kg orally, mean±standard error): 10.3 ± 3.6
gait pattern (mean) CB (Slc:ICR mice [2]; CB: right forepaw→left hindpaw→right hindpaw→left forepaw, 1.0 mg/kg orally, mean±standard error): 8.7 ± 4.3
change in gait pattern CB (Slc:ICR mice [2]; 1.0 mg/kg orally): decreased
improvement ratio, gait pattern CB (Slc:ICR mice [2]; 1.0 mg/kg orally): 100%
improvement ratio, maximum brightness ratio of the left hindpaw (Slc:ICR mice [2]; 1.0 mg/kg orally): 111%
movement disorder induced by NAC61-95 treatment (Slc:ICR mice [2]; 1.0 mg/kg orally): improved
maximum brightness ratio, left forepaw (Slc:ICR mice [2]; [3]): 51.5 ± 1.8
maximum brightness ratio, left hindpaw (Slc:ICR mice [2]; [3]): 65.3 ± 1.7
maximum brightness ratio, right forepaw (Slc:ICR mice [2]; [3]): 52.5 ± 2.4
maximum brightness ratio, right hindpaw (Slc:ICR mice [2]; [3]): 61.9 ± 2.4
print area, left forepaw (Slc:ICR mice [2]; [3]): 0.35 ± 0.02
print area, left hindpaw (Slc:ICR mice [2]; [3]): 0.38 ± 0.04
print area, right forepaw (Slc:ICR mice [2]; [3]): 0.33 ± 0.03
print area, right hindpaw (Slc:ICR mice [2]; [3]): 0.38 ± 0.04
change in the maximum brightness ratio of the left hindpaw (Slc:ICR mice [2]; 1.0 mg/kg orally, p<0.05, Student's t-test): significant increase
gait pattern (median) AA (Slc:ICR mice [2]; median, 1.0 mg/kg orally): 0.0
gait pattern (median) AB (Slc:ICR mice [2]; median, 1.0 mg/kg orally): 84.6
gait pattern (median) CA (Slc:ICR mice [2]; median, 1.0 mg/kg orally): 6.7
gait pattern (median) CB (Slc:ICR mice [2]; median, 1.0 mg/kg orally): 0.0
